Data taken from PubChem BioAssay AID1963841 (Molecular Pharmacology Branch, DTP, NCI, 2024).
pIC50: −log10 of the molar value.

System: 439559-082-T-J2-PDC spheroid viability
Assay: Anticancer human tumor 439559-082-T-J2-PDC patient-derived colon adenocarcinoma cell line growth inhibition [POLQ]
Settings: spheroids with HUVEC and MSC; for pIC50: curve of first compound; for viability, T/C: stronger effect = lower value
Procedure, shortened: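 PDC + HUVEC + MSC complex spheroids; POLQ inhibitors ± partner drugs; top conc. at/near clinical Cmax, else 10 microM (SN-38 1 microM), half-log dilutions; 37 degrees C, 5% CO2.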

[1] = second compound 0.0316 µM, first compound 0.0316 µM
[2] = second compound 0.0316 µM, first compound 0.1 µM
[3] = second compound 0.0316 µM, first compound 0.316 µM
[4] = second compound 0.0316 µM, first compound 1 µM
[5] = second compound 0.0316 µM, first compound 3.16 µM
[6] = second compound 0.0316 µM, first compound 10 µM
[7] = second compound 0.1 µM, first compound 0.0316 µM
[8] = second compound 0.1 µM, first compound 0.1 µM
[9] = second compound 0.1 µM, first compound 0.316 µM
[10] = second compound 0.1 µM, first compound 1 µM
[11] = second compound 0.1 µM, first compound 3.16 µM
[12] = second compound 0.1 µM, first compound 10 µM
[13] = second compound 0.316 µM, first compound 0.0316 µM
[14] = second compound 0.316 µM, first compound 0.1 µM
[15] = second compound 0.316 µM, first compound 0.316 µM
[16] = second compound 0.316 µM, first compound 1 µM
[17] = second compound 0.316 µM, first compound 3.16 µM
[18] = second compound 0.316 µM, first compound 10 µM
[19] = second compound 1 µM, first compound 0.0316 µM
[20] = second compound 1 µM, first compound 0.1 µM
[21] = second compound 1 µM, first compound 0.316 µM
[22] = second compound 1 µM, first compound 1 µM
[23] = second compound 1 µM, first compound 3.16 µM
[24] = second compound 1 µM, first compound 10 µM
[25] = second compound 3.16 µM, first compound 0.0316 µM
[26] = second compound 3.16 µM, first compound 0.1 µM
[27] = second compound 3.16 µM, first compound 0.316 µM
[28] = second compound 3.16 µM, first compound 1 µM
[29] = second compound 3.16 µM, first compound 3.16 µM
[30] = second compound 3.16 µM, first compound 10 µM
[31] = second compound 10 µM, first compound 0.0316 µM
[32] = second compound 10 µM, first compound 0.1 µM
[33] = second compound 10 µM, first compound 0.316 µM
[34] = second compound 10 µM, first compound 1 µM
[35] = second compound 10 µM, first compound 3.16 µM
[36] = second compound 10 µM, first compound 10 µM
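Note: spheroids exposed to compounds for seven days before readout.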
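Throughout, for viability, T/C: 100% = DMSO vehicle control viability.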

## C=CC(=O)N1CCN(c2nc(=O)n(-c3c(C)ccnc3C(C)C)c3nc(-c4c(O)cccc4F)c(F)cc23)C(C)C1 (centres undefined) + Nc1ccc(C#CCN(C(=O)Cc2ncc(C(F)(F)F)cc2C(F)(F)F)c2ccc(F)cc2)nn1
Second compound 0.0316 µM
  pIC50: < 5.00
Second compound 0.1 µM
  pIC50: < 5.00
Second compound 0.316 µM
  pIC50: < 5.00
Second compound 1 µM
  pIC50: < 5.00
Second compound 3.16 µM
  pIC50: < 5.00
Second compound 10 µM
  pIC50: < 5.00
[1]
  viability, T/C: 105%
[2]
  viability, T/C: 100%
[3]
  viability, T/C: 91.2%
[4]
  viability, T/C: 94.5%
[5]
  viability, T/C: 123%
[6]
  viability, T/C: 104%
[7]
  viability, T/C: 109%
[8]
  viability, T/C: 88.9%
[9]
  viability, T/C: 83.6%
[10]
  viability, T/C: 98.1%
[11]
  viability, T/C: 115%
[12]
  viability, T/C: 99.2%
[13]
  viability, T/C: 97.4%
[14]
  viability, T/C: 95.7%
[15]
  viability, T/C: 99.1%
[16]
  viability, T/C: 99.1%
[17]
  viability, T/C: 131%
[18]
  viability, T/C: 100%
[19]
  viability, T/C: 91.6%
[20]
  viability, T/C: 97.1%
[21]
  viability, T/C: 86.3%
[22]
  viability, T/C: 100%
[23]
  viability, T/C: 123%
[24]
  viability, T/C: 99.1%
[25]
  viability, T/C: 100%
[26]
  viability, T/C: 90.3%
[27]
  viability, T/C: 99.5%
[28]
  viability, T/C: 98.7%
[29]
  viability, T/C: 101%
[30]
  viability, T/C: 89.5%
[31]
  viability, T/C: 99.1%
[32]
  viability, T/C: 96.1%
[33]
  viability, T/C: 87.2%
[34]
  viability, T/C: 94.7%
[35]
  viability, T/C: 116%
[36]
  viability, T/C: 95.3%

## CC1COCCN1c1cc(C2(O)CC3CCC(C2)O3)c2cnn(-c3ccn[nH]3)c2n1 (centres undefined) + Nc1ccc(C#CCN(C(=O)Cc2ncc(C(F)(F)F)cc2C(F)(F)F)c2ccc(F)cc2)nn1
Second compound 0.0316 µM
  pIC50: < 5.00
Second compound 0.1 µM
  pIC50: < 5.00
Second compound 0.316 µM
  pIC50: < 5.00
Second compound 1 µM
  pIC50: < 5.00
Second compound 3.16 µM
  pIC50: < 5.00
Second compound 10 µM
  pIC50: < 5.00
[1]
  viability, T/C: 97.8%
[2]
  viability, T/C: 88.4%
[3]
  viability, T/C: 77%
[4]
  viability, T/C: 62.4%
[5]
  viability, T/C: 59.4%
[6]
  viability, T/C: 51.4%
[7]
  viability, T/C: 102%
[8]
  viability, T/C: 85.8%
[9]
  viability, T/C: 79.4%
[10]
  viability, T/C: 60.3%
[11]
  viability, T/C: 56.9%
[12]
  viability, T/C: 54.4%
[13]
  viability, T/C: 126%
[14]
  viability, T/C: 73.7%
[15]
  viability, T/C: 66.8%
[16]
  viability, T/C: 60.1%
[17]
  viability, T/C: 59.2%
[18]
  viability, T/C: 50.2%
[19]
  viability, T/C: 97.1%
[20]
  viability, T/C: 100%
[21]
  viability, T/C: 78.2%
[22]
  viability, T/C: 66.7%
[23]
  viability, T/C: 60.6%
[24]
  viability, T/C: 55%
[25]
  viability, T/C: 82.5%
[26]
  viability, T/C: 80.5%
[27]
  viability, T/C: 82.3%
[28]
  viability, T/C: 60.6%
[29]
  viability, T/C: 59.1%
[30]
  viability, T/C: 58%
[31]
  viability, T/C: 91.7%
[32]
  viability, T/C: 80.7%
[33]
  viability, T/C: 66.9%
[34]
  viability, T/C: 53.1%
[35]
  viability, T/C: 55.3%
[36]
  viability, T/C: 48.6%
